Data from patent US20230234920A1, “Azirine Containing Compounds as Anti-Angiogenesis Agents and a Process for the Preparation Thereof” (COUNCIL OF SCIENTIFIC & INDUSTRIAL RESEARCH, priority 2020, published 2023).

Experiments:
[1] = test system: HUVECs; assay: Capillary-like tube formation assay (tubulogenesis); format: cell-based, human; settings: for IC50: Homo sapiens, HUVEC, anti-angiogenic activity, read-out: IC50 value; for tubule formation: 6 h
Procedure: FIG. 2 represents effect of Compound 1 on capillary tube formation of HUVECs. Endothelial cells in Matrigel were incubated with ECM basal medium in the presence of compound 1 at the indicated concentrations for 6 h. Cell viability was assessed by Calcein-AM dye added few min. before the completion of 6 h. then photographs at 10×magnification were taken using an inverted microscope. The tubule length of HUVECs was quantified by Leica QWin software. Tubule network formation is expressed as a percentage of that vehicle (0.1% DMSO) treated cells (control).
FIG. 9 represents effect of racemic mixture (chiral isomer 1-1 and chiral isomer 2-1) of Compound 1 on capillary tube formation of HUVECs. Endothelial cells seeded in matrigel were incubated at the indicated concentrations of compound 1 racemic mixtures (1-1 and 2-1) with ECM basal medium for 6 h. Calcein-AM treatment was added to the ECs few minutes before completion of 6 h and pictures were captured using an inverted microscope at 10×magnification. The tubular structures of HUVECs were measured using Leica QWin software and tubulogenesis was expressed as a % of that vehicle (0.1% DMSO) treated cells (control) well.
HUVEC cells were incubated with or without sunitinib (20 nM) for 6 h at indicated concentrations of chiral isomers of Compound 1 (1-1 and 2-1). Photographs were taken using an inverted microscope at 10×magnification after Calcein-AM treatment to the ECs few minutes before completion of 6 h. The tubule length of HUVECs was quantified by Leica QWin software represented as a % of that vehicle (0.1% DMSO) treated cells (control) well.
To examine the effect of Compound 1 on angiogenesis, capillary tube formation assay was performed on regular or reduced growth factor Matrigel, taking VEGF (50 ng/mL) treated cells as a positive control and sunitinib (50 nM) as a negative control (FIG. 2). HUVECs seeded onto the matrigel with compound 1 at different concentrations of (10 μM, 5 μM, 1 μM, 800 nM, 500 nM, 250 nM, 125 nM, 75 nM, 50 nM, 25 nM and 10 nM) were incubated for six hours.
HUVECs (Human Umbilical Vein Endothelial Cells) were seeded onto the pre-coated matrigel (CORNING; 354230) in 96 wells plate at the rate of 11000 cells/well in incomplete ECM basal medium. Control group received vehicle, VEGF at 50 ng/mL as a positive and sunitinib at 50 nM as a negative control were used. Compound 1 at different dose concentrations (10 μM, 5 μM, 1 μM, 800 nM, 500 nM, 250 nM, 100 nM, 75 nM, 50 nM and 25 nM) were employed on seeded HUVECs in incomplete medium. Post 6 h of incubation Calcein-AM (Invitrogen) was added to all the respective groups and then the tubule pattern was observed and photographs were taken using an inverted fluorescent microscope (DM 6000, Leica Microsystems, USA). Relative tubule lengths were measured using Leica Q-Win software version 3.5.1. (Leica Microsystems, Switzerland).

[2] = test system: Endothelin-1 receptor; assay: Endothelin-1 induced contraction of isolated artery rings; parameters: species or system mice; settings: all concentrations of ET-1
Text: FIG. 15 represents effect of Compound 1 on endothelin-1 concentration-response curves. (A) Concentration-response curve of endothelin-1 in isolated carotid arteries of vehicle-treated (Control) and Compound 1 treated mice. (B) Concentration-response curve of endothelin-1 in isolated carotid arteries of vehicle-treated (Control) and compound 3 along with compound 8 treated mice.
To test for the selectivity of the putative Endothelin-1 receptor, we applied endothelin-1 or Compound 1 in a concentration dependent manner to the […] to observe its contraction inhibition activity (FIG. 15).

[3] = test system: chick CAM; assay: CAM (chick chorio-allantoic membrane) assay; format: in vivo; settings: 2 μM
Procedure: (A) Chick CAM assays were used to observe the effect of Compound 1 on angiogenesis in vivo. 1 mm^2 window was made in 8 days old chicken eggs to expose the CAM, and a gelatin disc ([…]) treated with vehicle (0.1% DMSO), sunitinib and Compound 1 at a indicated concentrations were placed on the CAM surface. Post 4 days of incubation, the discs and associated CAM were photographed and excised out, for hemoglobin estimation by drapkin's reagent. (B) Blood vessel density was calculated and Hb. concentration was measured and representative graph was plotted for the control and treatment group and data are represented as mean±SEM with significant difference from control at *p<0.05, **p<0.01 and ***p<0.001.
The eggs were incubated horizontally for 3 days at 37° C. in a 60% humidified atmosphere, using a hybridization incubator (combi-SV 12) with one hour scheduled rotation. Post 3 days of incubation, 2-3 mL of albumin was aspirated from the acute pole of the egg to create false air sac directly over the CAM. Post fertilization (Day 8), a fine blade was used to make an approximate 0.5 cc square incision on the eggshell under sterile conditions and the eggshell window fragment was removed to access the CAM beneath. A piece of gelatin sponge embedded in Compound 1 (500 nM and 250 nM) and sunitinib (2 μM) individually were placed on the CAM of the chicken embryo and incubated for 12 days. Sterile parafilm tape was used to seal back the window and the eggs were further incubated without the rotation setting. After 12 days of incubation the CAM integration was assessed by visual inspection and photographed with a digital camera (Canon EOS); the CAM membrane along with gelatin sponge were harvested and its hemoglobin (Hb.) estimation was done by Drabkin's method according to the manufacturer's protocol (Sigma, St. Louis, Mo.). Absorbance was measured at 540 nm and hemoglobin concentration was calculated.

[4] = test system: HCT116 colon tumor; assay: HCT116 colon tumor model in nude mice; format: in vivo
Procedure: FIG. 12 represents Compound 1 inhibited tumor growth in vivo. Tumor sizes were recorded every alternate day by Vernier caliper measurements and calculated as [4/3*[…]*(length/2)*(width/2)]. (A) Nude mice with induced HCT116 tumor were given vehicle to the control group, sunitinib at (40 mg/kg) as a standard drug given orally and Compound 1 at (25 mg/kg) through IP route for 21 days and tumor regression was calculated for all groups. (B) Nude Mice with induced HCT116 colon tumor were given both, sunitinib and Compound 1 at (25 mg/kg) intra-muscularly for 15 days after attaining a tumor size of 100 mm^3, tumor volume reduction for treated groups were calculated and compared with control. Data are expressed as means±S.E.M. (6 mice/group) with significant difference compared with control at p<0.0001.
HCT 116 (Human colon cancer cell line) cells were trypsinised and the pellet was dissolved in ice chilled 1×PBS. HCT 116 cells suspension to a concentration of (1*10^6) cells in 50 μL PBS solution, were left on ice with occasional agitation. Mice were anaesthetized with ketamine: xylazine (100:10 mg/kg), abdominal side area was shaved and sterilized using 70% ethanol. 50 μL of cell suspension was injected slowly subcutaneously to all the mice. After 2 days, booster dose of tumor cells was injected to all mice as performed previously. The growth of the tumor was measured by using vernier caliper on day 2, 4, 6, 8, 10, 12, 14, 16 18, 20, 23 and presented in the form of tumor volume (mm^3)=[4/3*π*(long axis/2)*(short axis/2)]. After attaining a volume of 100 mm^3 of tumor size, all mice were distributed equally (n=6−8) in 3 groups of controls received vehicle (Olive oil). Sutent (25 mg/kg) as a positive control was given orally and Compound 1 (25 mg/kg) dissolved in olive oil was injected intra-muscularly for 15 days and the tumor size regression was measured on every alternate day as described previously. Post 15 days of treatment, mice from all groups were sacrificed and tumor was excised out and processed further for immunohistochemistry and molecular analysis.

[5] = test system: HUVECs; assay: Wound healing (scratch) migration assay; format: cell-based, human; settings: 50 ng/mL, positive control
Procedure: FIG. 4 represents In vitro wound closure assay showing effect of Compound 1 migration of HUVECs. (A) ECs were incubated with 2.5% FBS in the presence of VEGF, sunitinib and Compound 1 at the indicated concentrations for 24 h after linear scratched wounds were created in the confluent cells. Post treatment photographs were taken at 0 hr, 12 h and 24 h using an inverted microscope at 10×magnification. (B) Data were quantified using Image J software and graphs were plotted by calculating the % migration of that vehicle treated cells (control). Compound 1 inhibits the wound closure by ECs in a dose dependent manner. The values represent the mean±SEM from (n=3) independent experiments with significant difference compared from control at *p<0.05.
As per previous reports, some anti-angiogenic compounds also show anti-migratory effect by modulating the expression of proteins responsible for blood vessels formation. A Scratch was made to the confluent endothelial cells containing VEGF (50 ng/mL) and sunitinib (50 nM) as a positive and negative control respectively and Compound 1 at 250 nM and 125 nM as a test compound. […] This might contribute to its potent anti-angiogenic effect.
Endothelial cells were grown inside 6-well plate at a confluency rate of 90%. And then with the help of 200 μL tip a straight line scratch was made in the middle of the grown ECs. After giving a gentle wash with 1×PBS, control group received vehicle in 2.5% FBS media. VEGF at 50 ng/mL as a positive control and sunitinib at 50 nM concentration was used as a negative control. Compound 1 at a dose concentration of 250 nM and 125 nM were used onto the wounded cells to observe its anti-migratory effect. After 0 h, 12 h and 24 h of post treatment the wound closure area was observed and micrographed using an inverted microscope (Olympus, Centre Valley, Pa., USA) and were analysed by Image J software. Control well at 100% was used to express inhibition percentage and the assay was performed for three-five times independently.

[6] = endothelial tubule network assay

With `CCOC(=O)C1N=C1CCc1ccc(Cl)cc1` (stereo not drawn) [Compound 8, Ethyl 3-(4-chlorophenethyl)-2H-azirine-2-carboxylate] the IC50 [1, 6] was 500 nM and the “effect on ET-1 induced contraction of aortic rings” value [2] was “no effect”.
For `CCOC(=O)C1N=C1/C=C/c1ccc(N(C)C)cc1` (stereo not drawn) [Compound 46, Ethyl (E)-3-(4-(dimethylamino)styryl)-2H-azirine-2-carboxylate], the IC50 [1, 6] was 500 nM and the melting point was 119 to 121 °C.
With Sunitinib Maleate [reference compound] the hemoglobin content [3] was 100 µg/mL, the “growth of HCT116 cells xenografts” value ([4]; 25 mg/kg, 15 days) was “powerful inhibitory effect” and the tumor volume ([4]; 40 mg/kg orally for 21 days, vs vehicle) was “progressive significant decrease in tumor volume”. For the same compound, the tumor reduction ([4]; in comparison to vehicle treated control group, end of experiment) was 54.58%, the tubule formation ([1]; 20 nM) was 40% and the tubule formation ([1]; 50 nM) was 25%.
With `CCCCCCCCCCCCC1=NC1C(=O)OCC` (stereo not drawn) [Compound 3, Ethyl 3-dodecyl-2H-azirine-2-carboxylate] the IC50 value ([1]; endothelial tubule network assay, result in words) was “Not Active” and the “effect on ET-1 induced contraction of aortic rings” value [2] was “no effect”.
With VEGF [reference compound] the wound closure [5] was 90%.
In the case of `CCOC(=O)C1N=C1CCc1ccc(OC)c(OC)c1` (stereo not drawn) [Compound 34, Ethyl 3-(3,4-dimethoxyphenethyl)-2H-azirine-2-carboxylate], the IC50 [1, 6] is reported as 250 nM and the melting point is reported as 55 to 57 °C.
